Structures can show the parent of a compound that is named as a salt.

The record followed here is patent US20160122320A1, “USEFUL COMBINATIONS OF MONOBACTAM ANTIBIOTICS WITH BETA-LACTAMASE INHIBITORS” (Basilea Pharmaceutica AG, priority 2005, published 2016).

Common to all, as to experiment: MIC, NCCLS broth microdilution
Common to all, as to assay type: cell-based
Background: Broth dilution looks for growth in wells or tubes with falling amounts of substance.

One experiment relates to Enterobacter cloacae P99. The conditions noted are these: for MIC of antibiotic at fixed inhibitor concentration (4 mg/L): MIC of antibiotic compound 1 with the labelled bridged monobactam of formula II and clavulanate, 4 mg/L each.
In experiment [1] the test system is Pseudomonas aeruginosa MK1184. Particulars: for MIC of antibiotic at fixed inhibitor concentration (4 mg/L): MIC of antibiotic compound 1 with the labelled bridged monobactam of formula II and clavulanate, 4 mg/L each.
Experiment [2] concerns Stenotrophomonas malthophilia 1AC736. The conditions noted are these: for MIC of antibiotic at fixed inhibitor concentration (4 mg/L): Stenotrophomonas malthophilia 1AC736, MIC of antibiotic compound 1 with the labelled bridged monobactam of formula II and clavulanate, 4 mg/L each.
The test system of the next experiment is Acinetobacter sp. J2. Particulars: for MIC of antibiotic at fixed inhibitor concentration (4 mg/L): Acinetobacter sp. J2, MIC of antibiotic compound 1 with the labelled bridged monobactam of formula II and clavulanate, 4 mg/L each.
In the next experiment the test system is Serratia marcescens S6. Particulars: for MIC of antibiotic at fixed inhibitor concentration (4 mg/L): MIC of antibiotic compound 1 with the labelled bridged monobactam of formula II and clavulanate, 4 mg/L each.
Experiment [3] concerns Klebsiella pneumoniae CF104. Particulars: for MIC of antibiotic at fixed inhibitor concentration (4 mg/L): MIC of antibiotic compound 1 with the labelled bridged monobactam of formula II and clavulanate, 4 mg/L each.
Experiment [4] relates to Pseudomonas aeruginosa 1973E. Particulars: for MIC of antibiotic at fixed inhibitor concentration (4 mg/L): MIC of antibiotic compound 1 with the labelled bridged monobactam of formula II and clavulanate, 4 mg/L each. Put shortly:
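NCCLS M7-A5 microdilution; DMSO ≤1% final; overnight, 30° C. or 37° C.; visual read. MIC = lowest conc. with no visible growth. Combos: formula I titrated, partners fixed at 4 μg/mL each.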

As to `O=C(C[n+]1ccc2ccccc2c1)N1CC[C@@H]2[C@H]1C(=O)N2S(=O)(=O)[O-]` [Compound 104, (1S,5R)-2-(2-(2-isoquinolinium)acetyl)-7-oxo-2,6-diazabicyclo[3.2.0]heptane-6-sulfonate, inner salt], the “MIC of antibiotic at fixed inhibitor concentration (4 mg/L)” value is 32 µg/mL in the experiment on Enterobacter cloacae P99; 32 µg/mL in experiment [1]; 0.125 µg/mL in experiment [2]; >32 µg/mL with Acinetobacter sp. J2; 2 µg/mL in the experiment on Serratia marcescens S6; 0.5 µg/mL in experiment [3]. Moreover, in experiment [4], the “MIC of antibiotic at fixed inhibitor concentration (4 mg/L)” value came to 4 µg/mL.

As to `NC(=O)OCC1C(NC(=O)C(=NOCc2cc(=O)c(O)cn2O)c2csc(N)n2)C(=O)N1OCC(=O)O` (stereo not shown) [Compound 41], the MIC of antibiotic with Enterobacter cloacae P99 (antibiotic alone, no inhibitor) was >32 µg/mL; in experiment [1] (antibiotic alone, no inhibitor) it was 4 µg/mL; in experiment [2] (Stenotrophomonas maltophilia 1AC736, antibiotic alone, no inhibitor), 1 µg/mL; with Acinetobacter sp. J2 (Acinetobacter baumannii J2, antibiotic alone, no inhibitor), 16 µg/mL; in the experiment on Serratia marcescens S6 (antibiotic alone, no inhibitor), 1 µg/mL; in experiment [3] (antibiotic alone, no inhibitor), >32 µg/mL. Also, the MIC of antibiotic in experiment [4] (antibiotic alone, no inhibitor) worked out at 4 µg/mL. For the same compound, the “MIC of antibiotic at fixed inhibitor concentration of 4 mg/L” value in the experiment with Enterobacter cloacae P99 (with 102 and clavulanate) came out at 16 µg/mL; with Enterobacter cloacae P99 (with 324 and clavulanate), 16 µg/mL; in experiment [1] (with 102 and clavulanate), 4 µg/mL; in experiment [1] (with 324 and clavulanate), 4 µg/mL; in experiment [2] (Stenotrophomonas maltophilia 1AC736, with 102 and clavulanate), 2 µg/mL; in experiment [2] (Stenotrophomonas maltophilia 1AC736, with 324 and clavulanate), 1 µg/mL. In addition, the “MIC of antibiotic at fixed inhibitor concentration of 4 mg/L” value was 16 µg/mL in the experiment with Acinetobacter sp. J2 (Acinetobacter baumannii J2, with 102 and clavulanate); 4 µg/mL in the experiment on Acinetobacter sp. J2 (Acinetobacter baumannii J2, with 324 and clavulanate); 0.5 µg/mL in the experiment with Serratia marcescens S6 (with 102 and clavulanate); 0.5 µg/mL in the experiment on Serratia marcescens S6 (with 324 and clavulanate); 0.5 µg/mL in experiment [3] (with 102 and clavulanate); 0.5 µg/mL in experiment [3] (with 324 and clavulanate). For the same compound, the “MIC of antibiotic at fixed inhibitor concentration of 4 mg/L” value in experiment [4] (with 102 and clavulanate) was determined as 4 µg/mL; in experiment [4] (with 324 and clavulanate), 8 µg/mL.

Take `CC1(C)S[C@@H]2[C@H](NC(=O)[C@H](N)c3ccccc3)C(=O)N2[C@H]1C(=O)O` [Ampicillin, ampicillin, reference compound]: the “MIC of antibiotic at fixed inhibitor concentration of 4 mg/L” value with Enterobacter cloacae P99 (with sulbactam) is >32 µg/mL; in experiment [1] (with sulbactam) it was >32 µg/mL; in experiment [2] (Stenotrophomonas maltophilia 1AC736, with sulbactam), 32 µg/mL; in the experiment on Acinetobacter sp. J2 (Acinetobacter baumannii J2, with sulbactam), 32 µg/mL; with Serratia marcescens S6 (with sulbactam), >32 µg/mL; in experiment [3] (with sulbactam), >32 µg/mL. Besides, the “MIC of antibiotic at fixed inhibitor concentration of 4 mg/L” value in experiment [4] (with sulbactam) is >32 µg/mL.

As for `NC(=O)c1cc[n+](CC(=O)N2CC[C@@H]3[C@H]2C(=O)N3S(=O)(=O)[O-])cc1` [Compound 105, (1S,5R)-2-[2-(4-carbamoylpyridinium)acetyl]-7-oxo-2,6-diazabicyclo[3.2.0]heptane-6-sulfonate, inner salt], the “MIC of antibiotic at fixed inhibitor concentration (4 mg/L)” value in the experiment on Enterobacter cloacae P99 worked out at 32 µg/mL; in experiment [1], 16 µg/mL; in experiment [2], 0.125 µg/mL; with Acinetobacter sp. J2 it was 8 µg/mL; in the experiment on Serratia marcescens S6, 0.125 µg/mL; in experiment [3] it was 0.5 µg/mL. The “MIC of antibiotic at fixed inhibitor concentration (4 mg/L)” value in experiment [4] came to 8 µg/mL.

Take `NS(=O)(=O)c1cccc(NC(=O)N2CC[C@@H]3[C@H]2C(=O)N3S(=O)(=O)[O-])c1.[Na+]` [Compound 308]: the “MIC of antibiotic at fixed inhibitor concentration (4 mg/L)” value in the experiment with Enterobacter cloacae P99 was 16 µg/mL; in experiment [1], >32 µg/mL; in experiment [2], 0.125 µg/mL; in the experiment with Acinetobacter sp. J2, >32 µg/mL; in the experiment with Serratia marcescens S6, 0.5 µg/mL; in experiment [3] it was 0.5 µg/mL. In experiment [4], the “MIC of antibiotic at fixed inhibitor concentration (4 mg/L)” value was determined as 4 µg/mL.
